# Publication PMC9049830 (RSC Advances, 2020)
# Where “and” joins values, the source holds several entries; their conditions need not be identical. Equal values may be shown once. Marks after values point to notes of the source that are not given here.
# Test system: not listed separately
# Assay: Skin permeation studies in Franz diffusion cells
# Type: in vitro ADME, porcine
# Conditions: after 24 h permeation from ethanolic solution into acceptor phase
row,Compound,Permeation as % applied dose of IBU
1,"CC(C)Cc1ccc(C(C)C(=O)O)cc1.CCCCCOC(=O)[C@@H](N)C(C)C [[ValOAm][IBU], L-valine pentyl ester ibuprofenate]",11.79%
2,"CC(C)Cc1ccc(C(C)C(=O)O)cc1.CCCCOC(=O)[C@@H](N)C(C)C [[ValOBu][IBU], L-valine butyl ester ibuprofenate]",10.66%
3,"CC(C)Cc1ccc(C(C)C(=O)O)cc1.CCOC(=O)[C@@H](N)C(C)C [[ValOEt][IBU], L-valine ethyl ester ibuprofenate]",7.33%
4,"CC(C)Cc1ccc(C(C)C(=O)O)cc1.CCCOC(=O)[C@@H](N)C(C)C [[ValOPr][IBU], L-valine propyl ester ibuprofenate]",13.55%
5,"CC(C)Cc1ccc(C(C)C(=O)O)cc1.CCCCCCOC(=O)[C@@H](N)C(C)C [[ValOHex][IBU], L-valine hexyl ester ibuprofenate]",9.81%
6,L-valine isopropyl ester ibuprofenate [[ValOiPr][IBU]],12.09%
7,"CC(C)Cc1ccc(C(C)C(=O)O)cc1 (racemic) [rac-IBU, 2-(4-isobutylphenyl)-propionic acid, reference compound]",6.06%

# Test system: not given
# Assay: not given
# Conditions: Britton–Robinson buffer at pH 7.4 as acceptor and donor solution; cited from earlier work
Compound,Increase in flux compared to IBU,Flux
"CC(C)Cc1ccc(C(C)C(=O)[O-])cc1.CCCCCC[N+](CCCCCC)(CCCCCC)CCCCCC [[N6,6,6,6][IBU]]",four–five-fold,
"CC(C)Cc1ccc(C(C)C(=O)O)cc1 (racemic) [rac-IBU, 2-(4-isobutylphenyl)-propionic acid, reference compound]",,0.542 μg cm^−2 h^−1
"CC(C)Cc1ccc(C(C)C(=O)[O-])cc1.CCCCCCCCCC[N+](C)(C)CCCCCCCCCC [[N1,1,10,10][IBU]]",four–five-fold,

# Test system: not listed separately
# Assay: Thermal stability by TG analysis
# Type: physicochemical
# Conditions: not given
row,Compound,"T onset, the onset temperature of the thermal degradation"
1,"CC(C)Cc1ccc(C(C)C(=O)O)cc1.CCCCCOC(=O)[C@@H](N)C(C)C [[ValOAm][IBU], L-valine pentyl ester ibuprofenate]",129.8 °C
2,"CC(C)Cc1ccc(C(C)C(=O)O)cc1.CCCCOC(=O)[C@@H](N)C(C)C [[ValOBu][IBU], L-valine butyl ester ibuprofenate]",119.9 °C
3,"CC(C)Cc1ccc(C(C)C(=O)O)cc1.CCOC(=O)[C@@H](N)C(C)C [[ValOEt][IBU], L-valine ethyl ester ibuprofenate]",89.5 °C
4,"CC(C)Cc1ccc(C(C)C(=O)O)cc1.CCCOC(=O)[C@@H](N)C(C)C [[ValOPr][IBU], L-valine propyl ester ibuprofenate]",109.5 °C
5,"CC(C)Cc1ccc(C(C)C(=O)O)cc1.CCCCCCOC(=O)[C@@H](N)C(C)C [[ValOHex][IBU], L-valine hexyl ester ibuprofenate]",128.9 °C
6,L-valine isopropyl ester ibuprofenate [[ValOiPr][IBU]],90.2 °C
7,"CC(C)Cc1ccc(C(C)C(=O)O)cc1 (racemic) [rac-IBU, 2-(4-isobutylphenyl)-propionic acid, reference compound]",189.8 °C

# Test system: not listed separately
# Assay: n-octanol/water and n-octanol/phosphate buffer partition coefficient
# Type: physicochemical
# Conditions: n-octanol/phosphate buffer pH 5.4, 25 °C
row,Compound,log PpH=5.4
1,"CC(C)Cc1ccc(C(C)C(=O)O)cc1.CCCCCOC(=O)[C@@H](N)C(C)C [[ValOAm][IBU], L-valine pentyl ester ibuprofenate]",2.421 ± 0.002
2,"CC(C)Cc1ccc(C(C)C(=O)O)cc1.CCOC(=O)[C@@H](N)C(C)C [[ValOEt][IBU], L-valine ethyl ester ibuprofenate]",2.023 ± 0.001
3,"CC(C)Cc1ccc(C(C)C(=O)O)cc1.CCCOC(=O)[C@@H](N)C(C)C [[ValOPr][IBU], L-valine propyl ester ibuprofenate]",2.061 ± 0.001
4,"CC(C)Cc1ccc(C(C)C(=O)O)cc1.CCCCCCOC(=O)[C@@H](N)C(C)C [[ValOHex][IBU], L-valine hexyl ester ibuprofenate]",2.880 ± 0.011
5,L-valine isopropyl ester ibuprofenate [[ValOiPr][IBU]],2.186 ± 0.001
6,"CC(C)Cc1ccc(C(C)C(=O)O)cc1 (racemic) [rac-IBU, 2-(4-isobutylphenyl)-propionic acid, reference compound]",3.192

# Same assay, conditions: n-octanol/phosphate buffer pH 7.4, 25 °C
row,Compound,log PpH=7.4
1,"CC(C)Cc1ccc(C(C)C(=O)O)cc1.CCCCCOC(=O)[C@@H](N)C(C)C [[ValOAm][IBU], L-valine pentyl ester ibuprofenate]",1.259 ± 0.001
2,"CC(C)Cc1ccc(C(C)C(=O)O)cc1.CCOC(=O)[C@@H](N)C(C)C [[ValOEt][IBU], L-valine ethyl ester ibuprofenate]",1.026 and 1.026 ± 0.001
3,"CC(C)Cc1ccc(C(C)C(=O)O)cc1.CCCOC(=O)[C@@H](N)C(C)C [[ValOPr][IBU], L-valine propyl ester ibuprofenate]",1.197 ± 0.003
4,"CC(C)Cc1ccc(C(C)C(=O)O)cc1.CCCCCCOC(=O)[C@@H](N)C(C)C [[ValOHex][IBU], L-valine hexyl ester ibuprofenate]",1.279 and 1.279 ± 0.001
5,L-valine isopropyl ester ibuprofenate [[ValOiPr][IBU]],1.172 ± 0.001
6,"CC(C)Cc1ccc(C(C)C(=O)O)cc1 (racemic) [rac-IBU, 2-(4-isobutylphenyl)-propionic acid, reference compound]",1.284

# Same assay, conditions: n-octanol/water
row,Compound,logP
1,"CC(C)Cc1ccc(C(C)C(=O)O)cc1 (racemic) [rac-IBU, 2-(4-isobutylphenyl)-propionic acid, reference compound]",2.415 ± 0.001

# Test system: L929 cell lines
# Assay: not given
# Conditions: high concentrations; cited from earlier work
row,Compound,Decrease of viability
1,CCOC(=O)[C@@H]1CCCN1 [proline ethyl ester],20%

# Test system: not listed separately
# Assay: Solubility
# Type: physicochemical
# Conditions: deionised water, 25 °C
row,Compound,Solubility in water
1,"CC(C)Cc1ccc(C(C)C(=O)O)cc1.CCCCCOC(=O)[C@@H](N)C(C)C [[ValOAm][IBU], L-valine pentyl ester ibuprofenate]",1.798 ± 0.019 g dm^−3
2,"CC(C)Cc1ccc(C(C)C(=O)O)cc1.CCCCOC(=O)[C@@H](N)C(C)C [[ValOBu][IBU], L-valine butyl ester ibuprofenate]",3.125 ± 0.007 g dm^−3
3,"CC(C)Cc1ccc(C(C)C(=O)O)cc1.CCOC(=O)[C@@H](N)C(C)C [[ValOEt][IBU], L-valine ethyl ester ibuprofenate]",5.542 ± 0.007 g dm^−3
4,"CC(C)Cc1ccc(C(C)C(=O)O)cc1.CCCOC(=O)[C@@H](N)C(C)C [[ValOPr][IBU], L-valine propyl ester ibuprofenate]",4.221 ± 0.033 g dm^−3
5,"CC(C)Cc1ccc(C(C)C(=O)O)cc1.CCCCCCOC(=O)[C@@H](N)C(C)C [[ValOHex][IBU], L-valine hexyl ester ibuprofenate]",1.058 ± 0.002 g dm^−3

# Same assay, conditions: pH 5.4, 25 °C
row,Compound,Solubility in phosphate buffer pH = 5.4
1,"CC(C)Cc1ccc(C(C)C(=O)O)cc1.CCCCCOC(=O)[C@@H](N)C(C)C [[ValOAm][IBU], L-valine pentyl ester ibuprofenate]",1.380 ± 0.007 g dm^−3
2,"CC(C)Cc1ccc(C(C)C(=O)O)cc1.CCCCOC(=O)[C@@H](N)C(C)C [[ValOBu][IBU], L-valine butyl ester ibuprofenate]",2.371 ± 0.016 g dm^−3
3,"CC(C)Cc1ccc(C(C)C(=O)O)cc1.CCOC(=O)[C@@H](N)C(C)C [[ValOEt][IBU], L-valine ethyl ester ibuprofenate]",3.969 ± 0.056 g dm^−3
4,"CC(C)Cc1ccc(C(C)C(=O)O)cc1.CCCOC(=O)[C@@H](N)C(C)C [[ValOPr][IBU], L-valine propyl ester ibuprofenate]",3.057 ± 0.045 g dm^−3
5,"CC(C)Cc1ccc(C(C)C(=O)O)cc1.CCCCCCOC(=O)[C@@H](N)C(C)C [[ValOHex][IBU], L-valine hexyl ester ibuprofenate]",0.759 ± 0.006 g dm^−3

# Same assay, conditions: pH 7.4, 25 °C
row,Compound,Solubility in phosphate buffer pH = 7.4
1,"CC(C)Cc1ccc(C(C)C(=O)O)cc1.CCCCCOC(=O)[C@@H](N)C(C)C [[ValOAm][IBU], L-valine pentyl ester ibuprofenate]",1.931 ± 0.008 g dm^−3
2,"CC(C)Cc1ccc(C(C)C(=O)O)cc1.CCCCOC(=O)[C@@H](N)C(C)C [[ValOBu][IBU], L-valine butyl ester ibuprofenate]",3.089 ± 0.015 g dm^−3
3,"CC(C)Cc1ccc(C(C)C(=O)O)cc1.CCOC(=O)[C@@H](N)C(C)C [[ValOEt][IBU], L-valine ethyl ester ibuprofenate]",5.206 ± 0.044 g dm^−3
4,"CC(C)Cc1ccc(C(C)C(=O)O)cc1.CCCOC(=O)[C@@H](N)C(C)C [[ValOPr][IBU], L-valine propyl ester ibuprofenate]",5.367 ± 0.019 g dm^−3
5,"CC(C)Cc1ccc(C(C)C(=O)O)cc1.CCCCCCOC(=O)[C@@H](N)C(C)C [[ValOHex][IBU], L-valine hexyl ester ibuprofenate]",1.233 ± 0.001 g dm^−3

# Test system: not listed separately
# Assay: Solubility in organic solvents by modified Vogel's method
# Type: physicochemical
# Conditions: 25 °C
row,Compound,Solubility in hexane (in words)
1,"CC(C)Cc1ccc(C(C)C(=O)O)cc1.CCCCCOC(=O)[C@@H](N)C(C)C [[ValOAm][IBU], L-valine pentyl ester ibuprofenate]",partly soluble (partly soluble when 33–100 mg of compound dissolved in 1 cm^3)
2,"CC(C)Cc1ccc(C(C)C(=O)O)cc1.CCCCCCOC(=O)[C@@H](N)C(C)C [[ValOHex][IBU], L-valine hexyl ester ibuprofenate]",soluble (soluble when more than 100 mg of compound was soluble in 1 cm^3)

# Test system: not listed separately
# Assay: Accumulation in the skin after 24 h permeation
# Type: in vitro ADME, porcine
# Conditions: after 24 h skin permeation from ethanolic solution
row,Compound,Skin accumulation as % applied dose of IBU
1,"CC(C)Cc1ccc(C(C)C(=O)O)cc1.CCCCOC(=O)[C@@H](N)C(C)C [[ValOBu][IBU], L-valine butyl ester ibuprofenate]",7.0%
2,"CC(C)Cc1ccc(C(C)C(=O)O)cc1.CCOC(=O)[C@@H](N)C(C)C [[ValOEt][IBU], L-valine ethyl ester ibuprofenate]",3.5%
3,"CC(C)Cc1ccc(C(C)C(=O)O)cc1.CCCOC(=O)[C@@H](N)C(C)C [[ValOPr][IBU], L-valine propyl ester ibuprofenate]",5.9%
4,L-valine isopropyl ester ibuprofenate [[ValOiPr][IBU]],4.9%
5,"CC(C)Cc1ccc(C(C)C(=O)O)cc1 (racemic) [rac-IBU, 2-(4-isobutylphenyl)-propionic acid, reference compound]",3.1%

# Same assay, conditions: after 24 h skin permeation from ethanolic solution, acceptor fluid pH 7.4, n = 3
row,Compound,Skin accumulation
1,"CC(C)Cc1ccc(C(C)C(=O)O)cc1.CCCCCOC(=O)[C@@H](N)C(C)C [[ValOAm][IBU], L-valine pentyl ester ibuprofenate]",565.60 ± 71.09 ^a μg IBU g^−1
2,"CC(C)Cc1ccc(C(C)C(=O)O)cc1.CCCCOC(=O)[C@@H](N)C(C)C [[ValOBu][IBU], L-valine butyl ester ibuprofenate]",815.14 ± 58.92 ^b μg IBU g^−1
3,"CC(C)Cc1ccc(C(C)C(=O)O)cc1.CCOC(=O)[C@@H](N)C(C)C [[ValOEt][IBU], L-valine ethyl ester ibuprofenate]",412.19 ± 38.45 μg IBU g^−1
4,"CC(C)Cc1ccc(C(C)C(=O)O)cc1.CCCOC(=O)[C@@H](N)C(C)C [[ValOPr][IBU], L-valine propyl ester ibuprofenate]",726.42 ± 113.37 ^a μg IBU g^−1
5,"CC(C)Cc1ccc(C(C)C(=O)O)cc1.CCCCCCOC(=O)[C@@H](N)C(C)C [[ValOHex][IBU], L-valine hexyl ester ibuprofenate]",612.86 ± 129.33 ^a μg IBU g^−1
6,L-valine isopropyl ester ibuprofenate [[ValOiPr][IBU]],630.75 ± 61.87 ^a μg IBU g^−1
7,"CC(C)Cc1ccc(C(C)C(=O)O)cc1 (racemic) [rac-IBU, 2-(4-isobutylphenyl)-propionic acid, reference compound]",745.69 ± 61.87 μg IBU g^−1

# Test system: not given
# Assay: not given
# Conditions: known ibuprofen salts; cited from earlier work
row,Compound,log P
1,CC(C)Cc1ccc(C(C)C(=O)[O-])cc1.CCCCn1cc[n+](C)c1 (stereo not shown) [[BMIm][IBU]],1.15
2,"CC(C)Cc1ccc(C(C)C(=O)[O-])cc1.CCCC[P+](CCCC)(CCCC)CCCC [[P4,4,4,4][IBU]]",1.54
3,"CC(C)Cc1ccc(C(C)C(=O)[O-])cc1.CCCCCC[N+](CCCCCC)(CCCCCC)CCCCCC [[N6,6,6,6][IBU]]",2.47
4,"CC(C)Cc1ccc(C(C)C(=O)[O-])cc1.CCCCCCCCCC[N+](C)(C)CCCCCCCCCC [[N1,1,10,10][IBU]]",1.87
